Results taken from patent publication US6825230B2, “Spiro and dispiro 1,2,4-trixolane antimalarials” (Medicines for Malaria Venture MMV, priority 2002, dated 2004).
Converted amounts (≈) assume the structure as drawn. Where two headings read alike, the source gives them in different places.

How the values were obtained:
[1] = system: chloroquine-resistant K1 strain of P. falciparum; experiment: In vitro antimalarial semiautomated microdilution assay ([3H]-hypoxanthine incorporation), K1 strain; type: cell-based, Plasmodium falciparum; details: Plasmodium falciparum
Description: (§1) Various OZ compounds were tested by the semiautomated microdilution assay against intraerythrocytic forms of Plasmodium falciparum derived from asynchronous stock cultures.
(§2) Fifty percent inhibitory concentration (IC50) were estimated by Logit regression analysis.

[2] = system: chloroquine-sensitive NF54 strain of P. falciparum; experiment: In vitro antimalarial semiautomated microdilution assay ([3H]-hypoxanthine incorporation), NF54 strain; type: cell-based, Plasmodium falciparum; details: Plasmodium falciparum
Description: as §1, §2

[3] = system: ANKA strain of P. berghei; experiment: Single dose STI in vivo screen in infected mice; design: species or system Plasmodium berghei; details: for Survival (days) 10 mg/kg po: single 10 mg/kg po in 3% ethanol and 7% Tween 80; for Survival (days) 10 mg/kg po / Survival (days) 10 mg/kg SSV po / Survival (days) 10 mg/kg sc: untreated 6-7 days; for Activity (%) 10 mg/kg po: single 10 mg/kg po in 3% ethanol and 7% Tween 80 on day 1 post-infection; for Survival (days) 10 mg/kg SSV po: single 10 mg/kg po in SSV; for Activity (%) 10 mg/kg SSV po: single 10 mg/kg po in standard suspending vehicle (SSV) on day 1 post-infection; for Survival (days) 10 mg/kg sc: single 10 mg/kg sc in 3% ethanol and 7% Tween 80; for Activity (%) 10 mg/kg sc: single 10 mg/kg sc in 3% ethanol and 7% Tween 80 on day 1 post-infection
Description: In the single dose STI in vivo screen, Moro SPF or NMRI mice infected with the ANKA strain of P. berghei (groups of three mice) were treated on day one post-infection with trioxolanes dissolved or suspended in 3% ethanol and 7% Tween 80. […] SSV consists of 0.5% w/v CMC, 0.5% v/v benzyl alcohol, 0.4% v/v Tween 80, and 0.9% w/v sodium chloride in water. Antimalarial activity was measured by percent reduction in parasitemia on day three post-infection and survival times compared to an untreated control group. Survival to day 30 post-infection is considered to be a cure. […] Other factors influencing antimalarial activity include the stability of carbon radicals formed by β-scission subsequent to the initial electron transfer to the peroxide bond and the influence of steric effects remote from the peroxide bond on the interactions between carbon radicals and potential drug targets.
Moro NMRI male mice (Fu Albino specific pathogen free) weighing 18±2 g were infected intravenously (i.v.) with 2×10^7 P. berghei ANKA strain-infected erythrocytes from donor mice on day 0 of the experiment. From donor mice with circa 30% parasitemia, heparinized blood was taken and diluted in physiological saline to 10^8 parasitized erythrocytes per ml. An aliquot (0.2 ml) of this suspension was injected i.v. into experimental and control groups of mice. […] Throughout the experiments, mice were kept in groups of three or five animals in Makrolon type II cages in an air-conditioned animal room at 22 to 23° C.
They were administered per os (p.o.) in a total volume of 0.01 ml per gram of mouse. The activity of the compound was determined by a variety of methods outlined in subsequent sections. Survival time was also recorded, and survival to day 30 post-infection was considered to be a cure.

[4] = K1, 72 h, read-out: IC50 (ng/ml) K1, chloroquine-resistant K1 strain, 72 h incubation
[5] = NF54, 72 h, read-out: IC50 (ng/ml) NF54, chloroquine-sensitive NF54 strain, 72 h incubation
[6] = percent reduction in parasitemia on day 3
[7] = chloroquine-resistant K1 strain, 72 h incubation, read-out: IC50 (ng/ml) K1
[8] = chloroquine-sensitive NF54 strain, 72 h incubation, read-out: IC50 (ng/ml) NF54

SMILES | IC50 [1, 4] [ng/mL] | IC50 [2, 5] [ng/mL] | Survival (days) 10 mg/kg po [3] [days] | Activity (%) 10 mg/kg po [3, 6] | Survival (days) 10 mg/kg SSV po [3] [days] | Activity (%) 10 mg/kg SSV po [3, 6] | Survival (days) 10 mg/kg sc [3] [days] | Activity (%) 10 mg/kg sc [3, 6] | IC50 [1, 7] [ng/mL] | IC50 [2, 8] [ng/mL] | Survival (days) 3 mg/kg SSV po ([3]; single 3 mg/kg po in SSV) [days] | Activity (%) 3 mg/kg SSV po ([3]; single 3 mg/kg po in SSV, percent reduction in parasitemia on day 3) [%]
CC(C)(CO)NC(=O)[C@H]1CC[C@]2(CC1)OOC1(O2)C2CC3CC(C2)CC1C3 (some centres unmarked) [OZ129] | 10 (≈ 26.4 nM) | > 10 | 5.3 | 0% | 5.7 | 4% | 5.7 | 0% |  |  |  | 
NC(=O)C(=O)NC[C@H]1CC[C@]2(CC1)OOC1(O2)C2CC3CC(C2)CC1C3 (stereo partly drawn) [OZ268, N-(cis-Adamantane-2-spiro-3′-1′,2′,4′-trioxaspiro[4.5]decane-8′-methyl)oxamide] |  |  | 9.3 | 99.86% | 13.3 | 99.47% | 9.7 | 99.92% | 0.44 (≈ 1.21 nM) | 0.71 (≈ 1.95 nM) |  | 
COC(=O)c1cn(C[C@H]2CC[C@]3(CC2)OOC2(O3)C3CC4CC(C3)CC2C4)cn1 (some centres unmarked) [OZ224] |  |  | 6.0 | 0% | 5.7 | 5% | 5.7 | 20% | 2 (≈ 4.97 nM) | 3 (≈ 7.45 nM) |  | 
O=C(O)COCC(=O)N1CCC2(CC1)OOC1(O2)C2CC3CC(C2)CC1C3 (centres unmarked) [OZ112, Adamantane-2-spiro-3′-8′-[(carboxymethoxy)acetyl]-1′,2′,4′-trioxa-8′-azaspiro[4.5]decane] | > 10 | > 10 | 5.7 | 6% | 5.7 | 0% | 6.3 | 36% |  |  |  | 
NC1(C(=O)NC[C@H]2CC[C@]3(CC2)OO[C@]2(O3)C3CC4CC(C3)CC2C4)CCCC1 [OZ317] |  |  |  |  | 9.8 |  |  |  | 0.33 (≈ 0.816 nM) | 0.36 (≈ 0.89 nM) | 10.0 | 
COC(=O)C1(c2ccccc2)CCC2(CC1)OOC1(O2)C2CC3CC(C2)CC1C3 (centres unmarked) [OZ98] | 2.3 (≈ 5.77 nM) | 0.9 (≈ 2.26 nM) | 6.3 | 72% | 5.3 | 11% | 7.3 | 77% |  |  |  | 
NC(=O)NC[C@H]1CC[C@]2(CC1)OOC1(O2)C2CC3CC(C2)CC1C3 (some centres unmarked) [OZ265] |  |  | 13.0 | 99% | 9.7 | 98% | 11.7 | 99.67% | 0.56 (≈ 1.66 nM) | 1.6 (≈ 4.76 nM) |  | 
Oc1ccc([C@H]2CC[C@]3(CC2)OOC2(O3)C3CC4CC(C3)CC2C4)cc1 (some centres unmarked) [OZ288] |  |  |  |  | 11.0 | 99.96% |  |  | 1.7 (≈ 4.77 nM) | 2.7 (≈ 7.57 nM) | 8.0 | 82
O=C(O)c1ccc([C@H]2CC[C@]3(CC2)OOC2(O3)C3CC4CC(C3)CC2C4)cc1 (some centres unmarked) [OZ165] | 39 (≈ 101 nM) | > 10 | 6.3 | 18% | 6.0 | 3% | 5.7 | 9% |  |  |  | 
O=C(OC1CCC2(CC1)OOC1(O2)C2CC3CC(C2)CC1C3)n1ccnc1 (centres unmarked) [OZ147, Adamantane-2-spiro-3′-1′,2′,4′-trioxaspiro[4.5]decane-8′-yl imidazole-1-carboxylate] |  |  | 8.0 | 85% | 8.0 | 71% | 19.7 | 99.89% | 1.1 (≈ 2.94 nM) | 1.8 (≈ 4.81 nM) |  | 
O=C(O)c1cncn1C[C@H]1CC[C@]2(CC1)OOC1(O2)C2CC3CC(C2)CC1C3 (stereo partly drawn) [OZ231, cis-Adamantane-2-spiro-3′-8′-(5′-carboxy-1′H-imidazol-1′-ylmethyl)-1′,2′,4′-30 trioxaspiro[4.5]decane] | > 10 | > 10 | 5.3 | 0/0/0% | 5.7 | 0/0/0% | 6.0 | 0/0/0% |  |  |  | 
COC(=O)c1ccc(C2(c3ccc(C(=O)OC)c(C(=O)OC)c3)OOC3(O2)C2CC4CC(C2)CC3C4)cc1C(=O)OC (centres unmarked) [OZ106, Adamantane-2-spiro-3′-5′,5′-bis[3′,4′-di(methoxycarbonyl)phenyl]-1′,2′,4′-trioxolane] | 2.2 (≈ 3.79 nM) | 1.7 (≈ 2.93 nM) | 5.3 | 0/0/0% | 5.0 | 0/0/0% | 5.3 | 0/0/0% |  |  |  | 
NC(=O)C[C@H]1CC[C@]2(CC1)OOC1(O2)C2CC3CC(C2)CC1C3 (some centres unmarked) [OZ243] | 0.91 (≈ 2.83 nM) | 1.1 (≈ 3.42 nM) | 7.3 | 87% | 8.7 | 97% | 6.3 | 70% |  |  |  | 
O=C(NC[C@H]1CC[C@]2(CC1)OOC1(O2)C2CC3CC(C2)CC1C3)c1ccccc1C(=O)NC[C@H]1CC[C@]2(CC1)OOC1(O2)C2CC3CC(C2)CC1C3 (stereo partly drawn) [OZ230, N,N′-Bis[cis-[adamantane-2-spiro-3′-1′,2′,4′-trioxaspiro[4.5]dec-8′-yl]methyl]-1,2-benzenedicarboxamide] | 3.9 (≈ 5.44 nM) | 3.6 (≈ 5.02 nM) | 5.3 | 0/0/0% | 5.7 | 0/0/0% | 5.7 | 0/0/0% |  |  |  | 
COCC(=O)N(C1CCCCC1)C1CCC2(CC1)OOC1(O2)C2CC3CC(C2)CC1C3 (centres unmarked) [OZ174] | 27 (≈ 62.3 nM) | 34 (≈ 78.4 nM) | 6.7 | 0% | 7.3 | 15% | 10.3 | 90% |  |  |  | 
CN(C)C(=O)N[C@H]1CC[C@]2(CC1)OOC1(O2)C2CC3CC(C2)CC1C3 (some centres unmarked) [OZ187] | 4 (≈ 11.4 nM) | 6.8 (≈ 19.4 nM) | 7.7 | 77% | 10.0 | 94% | 7.0 | 77% |  |  |  | 
O=C(NO)[C@H]1CC[C@]2(CC1)OOC1(O2)C2CC3CC(C2)CC1C3 (some centres unmarked) [OZ116] | 4.2 (≈ 13 nM) | 3.3 (≈ 10.2 nM) | 7.7 | 97% | 8.3 | 96% | 8.0 | 96% |  |  |  | 
[N-]=[N+]=NCC[C@H]1CC[C@]2(CC1)OOC1(O2)C2CC3CC(C2)CC1C3 (some centres unmarked) [OZ228] | 2 (≈ 6 nM) | 2.1 (≈ 6.3 nM) | 10.3 | 99.94% | 6.0 | 28% | 14.0 | 99.94% |  |  |  | 
c1csc(NC[C@H]2CC[C@]3(CC2)OOC2(O3)C3CC4CC(C3)CC2C4)n1 (some centres unmarked) [OZ252] |  |  | 8.3 | 98.91% | 9.0 | 99.49% | 9.3 | 99.82% | 2.3 (≈ 6.11 nM) | 2.2 (≈ 5.84 nM) |  | 
